Laboratory results reported in article PMC8537048, “Characterization of Fungal FAD-Dependent AA3_2 Glucose Oxidoreductases from Hitherto Unexplored Phylogenetic Clades” (Journal of Fungi, 2021).
One block for each compound: values may come before it.

Legend:
TvGDHII = molecular target: T1, TvGDHII (Trichoderma virens, UniProt G9N1C2); assay: spectrophotometric steady-state kinetics, reduction of […],4-benzoquinone ([…] nm); format: biochemical; conditions: 0.5 mM 1,4-benzoquinone fixed, pH 6.5, 30 °C
T1 construct: gene TRIVIDRAFT_46709; monomer; ~65 kDa deglycosylated; non-covalent FAD

RsGDHIII = molecular target: T2, RsGDHIII (Rhizoctonia solani, UniProt A0A0B7G104); assay: as above; format: biochemical; conditions: 0.5 mM 1,4-benzoquinone fixed, pH 6.5, 30 °C
T2 construct: gene RSOLAG1IB_10481; monomer; non-covalent FAD
T2 sequence (A0A0B7G104 20-601): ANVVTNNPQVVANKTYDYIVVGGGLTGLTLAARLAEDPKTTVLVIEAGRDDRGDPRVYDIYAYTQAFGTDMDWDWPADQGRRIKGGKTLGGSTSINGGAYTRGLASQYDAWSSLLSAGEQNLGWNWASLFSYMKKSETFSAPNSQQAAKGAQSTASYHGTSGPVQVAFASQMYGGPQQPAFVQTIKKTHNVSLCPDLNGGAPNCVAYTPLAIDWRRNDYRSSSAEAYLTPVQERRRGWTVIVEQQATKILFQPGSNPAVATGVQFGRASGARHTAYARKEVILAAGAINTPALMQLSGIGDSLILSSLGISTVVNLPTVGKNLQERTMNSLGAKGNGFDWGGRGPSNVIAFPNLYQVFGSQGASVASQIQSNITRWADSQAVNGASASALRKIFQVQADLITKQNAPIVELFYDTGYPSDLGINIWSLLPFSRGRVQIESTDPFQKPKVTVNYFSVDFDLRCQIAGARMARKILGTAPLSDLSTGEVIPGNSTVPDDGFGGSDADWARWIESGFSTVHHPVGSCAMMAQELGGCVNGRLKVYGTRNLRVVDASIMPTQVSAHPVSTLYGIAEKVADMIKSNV

[1] = molecular target: Aureobasidium subglaciale glucose oxidase (AsGOxII) (Aureobasidium subglaciale); assay: SEC-MALS; HPLC-SEC-MALS of the purified, native glycosylated enzyme; Superdex 200 10/300 GL, PBS pH 7.4 with 200 mM NaCl, 0.75 mL/min, 25 °C; 80 μg of protein loaded per run; oligomeric state judged against the mass of the deglycosylated subunit by SDS-PAGE

T1 sequence (G9N1C2 entry or part of it): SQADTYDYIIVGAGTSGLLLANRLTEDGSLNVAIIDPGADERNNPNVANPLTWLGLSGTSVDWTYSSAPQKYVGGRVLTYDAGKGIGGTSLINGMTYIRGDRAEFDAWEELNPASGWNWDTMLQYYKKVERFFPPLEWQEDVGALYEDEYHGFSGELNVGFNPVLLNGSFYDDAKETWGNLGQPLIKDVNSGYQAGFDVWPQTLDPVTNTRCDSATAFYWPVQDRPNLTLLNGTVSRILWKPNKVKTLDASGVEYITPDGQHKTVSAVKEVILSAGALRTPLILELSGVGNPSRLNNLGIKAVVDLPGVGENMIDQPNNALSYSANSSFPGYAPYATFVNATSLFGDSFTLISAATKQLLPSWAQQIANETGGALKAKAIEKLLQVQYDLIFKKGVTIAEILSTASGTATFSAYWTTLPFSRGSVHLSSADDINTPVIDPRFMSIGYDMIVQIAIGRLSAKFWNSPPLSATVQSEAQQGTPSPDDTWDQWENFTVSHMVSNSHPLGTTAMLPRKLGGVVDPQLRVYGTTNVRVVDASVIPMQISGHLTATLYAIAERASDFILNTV

apparent Km (TvGDHII): 42.6 ± 2.4 mM
Compound: OC[C@H]1OC(O)[C@H](O)[C@@H](O)[C@H]1O (stereo partly drawn) [D-galactose]

Compound: OC[C@H]1O[C@H](O[C@H]2[C@H](O)[C@@H](O)C(O)O[C@@H]2CO)[C@H](O)[C@@H](O)[C@@H]1O (stereo partly drawn) [maltose]
apparent Km (RsGDHIII): 159.6 ± 9.4 mM

stoichiometry N [1]: 2
Compound: Aureobasidium subglaciale glucose oxidase (AsGOxII) (enzyme)
